In article PMC11984388, “A brain-accessible peptide modulates stroke inflammatory response and neurotoxicity by targeting BDNF-receptor TrkB-T1 specific interactome” (Theranostics, 2025):

Experiment: Infarct volume after photothrombotic permanent ischemia
Format: in vivo, mice
Details: 24 h; for Decrease of infarct volume: versus TMyc, 3 nmol/g i.v. 1 h after damage
Experimental: Permanent focal ischemia was induced in cerebral cortex of adult male and female mice by microvascular photothrombosis as described with modifications. Brain injury involves vascular endothelium damage and platelet activation, followed by microvascular thrombotic occlusion of a particular region selected for illumination using a stereotaxic frame. Coordinates were +0.2 AP, +2 ML relative to Bregma and damaged area corresponded to primary motor and somatosensory cortex. For neuroprotection, a single dose (3 nmol/g) of peptides TMyc or TT1Ct (see below) was administered 1 h after damage initiation. Further details of the procedures, including measurement of infarct volume and evaluation of motor coordination and balance, are detailed as Supplementary material.
Antibodies, chemica ls and recombinant proteins, cell-penetrating peptides , prime rs , commercial as says , experimental models, recombinant DNAs and software ar e des cribe d in the Table S1, included as Supplementary material.
Animal procedures were performed follow ing Europea n Union Directive 2010/63/ EU and were approved by the CS I C and Comunidad de Ma drid (Ref PROEX 276.6/20) ethics committees.
Hous ing facilities were approved by Comunidad de Ma drid (#ES 280790000188) and conform to official regulations. Animals had sta ndard health and immune sta tus and were looked af ter by profes sional caretake rs daily. Ma l e and female mice were kept in groups of up to five in sta ndard IVC cage s while 1–2 pregnant rats occupied sta ndard cage s, always containing bedding and nes ting materials. Animals were under controlled lighting conditions (12 h light cycles ), relative humidity and temperature. Irradiated food and water were provided ad libitum.
We trie d to minimiz e animal suffering and reduce the number of sa cri f i ced animals .
Mi c e model of isc he mia by microv ascular photothr ombosis to study in vivo excitotoxicity This model of permanent focal isc hemia mimics embolic or thrombotic occlus ion of sm a ll ar ter ie s, which is freque ntly found in human stroke, and caus es a focal brain damage with histological and MR I corre lations to human patterns. The procedure was as previously des cribe d with some modific ations . Ma l e and female Ba lb/c OlaHsd mice (23–31 g; 10–16 weeks of age; Envigo Rms , Spain S.L.) were allowed to acc limatize to our facilities for at least 1 week af ter delivery, before isc hemic induction. They were kept with the sa m e cage mates, and daily examined to chec k their health sta tus . Mi c e were anes thetized with isoflurane (5% for induction, 2% for maintenance in oxygen; Abbot Labora tories , Ma drid, Spain) and then placed in a ste reotaxic frame (Naris hige Group, Tokyo, Ja pan). Body temperature was maintained at 36–37°C using a se l f-regulating heating blanket (Cibertec, Ma drid, Spain). A midline sc al p incision was made, the skull was expos ed, and both Bregma and Lambda points were identifie d.
A cold- light (Sc hott KL 2500 LCD; Schott Glas s, Ma inz, Germany) with a fibre optic bundle of 1.5 mm in diameter was centred using a micromanipula tor on the right side , at 0.2 mm anterior and 2.0 mm lateral (+0.2 AP, +2 ML ) relative to Bregma. […] Five minutes later, the brain was illumina ted (600 lms, 3,000 K) through the intact […]
skull for 10 min. Br ain injury encompas se s damage to vas cular endothelium, platelet activation, and subs equent microvascula r thrombotic occlus ion of the irradiate d region. The ar eas underneath this ste reotaxic position that result irradiate d ar e the prima ry motor cortex and the prima ry soma tos ens ory cortex (hindlimb and forelimb). Once completed surgery, the incision was sutured, and mice were allowed to recover. […]

In the case of Ac-YGRKKRRQRRRPPFVLFHKIPLDG-NH2 [TT1Ct], the “Decrease of infarct volume” value (female mice) is reported as 42%, the “Infarct volume (%)” value (male + female mice, 3 nmol/g i.v. 1 h after damage induction, TTC, relative to hemisphere volume, mean ± SEM, n = 19, n = 20) is reported as 10 ± 1% and the “Decrease of infarct volume” value (male mice) is reported as 45%.
